Columns and labels:
[1] = system: K562 chronic myelogenous leukemia cells; assay: MTT assay, in vitro inhibitory activity on cells; format: cell-based
Description: (§1) In this example, MTT assay was used to detect in vitro inhibitory activity of the compounds prepared according to the above examples on the cells. […] AP24534 was purchased from Shanghai Xinkuo Chemical Technology Co., Ltd., China.
(§2) Dimethyl sulfoxide (DMSO) is capable of dissolving formazan in cells, and absorbance value can be measured at a wavelength of 490 nm by an enzyme-linked immunometric meter, which reflects the number of living cells. Within a certain range of the number of cells, the amount of MTT crystals formed is proportional to the number of living cells.
(§3) 1. […] 2. Culturing in a 37° C., 5% CO2 incubator and keeping the cells adhering to the wall of the well. 3. […] 4. Carefully removing the supernatant, gently washing with PBS and discarding the supernatant again. 5. […] 6. Terminating culturing and carefully discarding the medium in each well. 7. Adding 150 μl dimethyl sulfoxide into each well, shaking for 10 minutes at low speed in a shaker, to make crystals fully dissolved. 8. Measuring the absorbance of each well at 490 nm by an enzyme-linked immunometric meter. 9. Calculating IC50 values.

[2] = system: Saos-2 human osteosarcoma cells; assay: MTT assay, in vitro inhibitory activity on cells; format: cell-based; settings: typically 48 hours
Description: as §1, §2, §3

[3] = system: MDA-MB-231 human breast cancer cells; assay: MTT assay, in vitro inhibitory activity on cells; format: cell-based; settings: typically 48 hours
Description: as §1, §2, §3

[4] = system: Ovcar-3 human ovarian cancer cells; assay: MTT assay, in vitro inhibitory activity on cells; format: cell-based; settings: typically 48 hours
Description: as §1, §2, §3

[5] = target: T1, Human ABL1 (T315I) (Homo sapiens, UniProt P00519, T315I); assay: ABL1 (T315I) kinase activity, [γ-33P] ATP / Abltide radiometric assay; format: biochemical; settings: ATP 1.0 μM, 120 minutes, room temperature
T1 construct: purchased Millipore Corporation, USA #14-522
Description: Kinase activity was determined according to the manufacturer's instructions. Peptide substrate is Abltide ([…]), purchased from Millipore Corporation, USA. Ion exchange chromatography paper P81 was purchased from Whatman Company, UK. [γ-33P] ATP was purchased from Perkin Elmer Company.
[γ-33P] ATP was added at room temperature, with final concentration of 1.0 μM, and the reaction was performed for 120 minutes. 20 μl aliquots were transferred onto the ion exchange chromatography paper P81. The paper was thoroughly washed with a 0.75% phosphoric acid solution three times, and then washed with acetone once. Finally, γ-33P radioactivity was measured.

[6] = Homo sapiens, K562, 48 h, typically 48 hours

IC50 [1, 6] [nM] | SMILES | other results
1140 | Cc1cn(-c2cc(NC(=O)c3ccc(C)c(C#Cc4cccc5ncncc45)c3)cc(C(F)(F)F)c2)cn1 [Example 20, 3-((quinazolin-5-yl)ethynyl)-4-methyl-N-[3-(4-methyl-1H-imidazol-1-yl)-5-trifluoromethylphenyl]benzamide] | IC50 [5]: 43.5 nM
3310 | Cc1ccc(C(=O)Nc2ccc(CN3CCC(N(C)C)CC3)c(C(F)(F)F)c2)cc1C#Cc1ccc2nccnc2c1 [Example 21] | IC50 [5]: 24.3 nM
8100 | Cc1ccc(C(=O)Nc2ccc(CN3CCN(C)CC3)c(C(F)(F)F)c2)cc1C#Cc1ccc2c(c1)nc(N)n2C [Example 22, 3-((2-amino-1-methyl-1H-benzo[d]imidazol-5-yl)ethynyl)-4-methyl-N-[(4-(4-methylpiperazin-1-yl)methyl)-3-trifluoromethylphenyl]benzamide] | 
2840 | Cc1ccc(C(=O)Nc2ccc(CN3CCN(C)CC3)c(C(F)(F)F)c2)cc1C#Cc1ccc2nccnc2c1 [Example 23] | IC50 [5]: 6 nM
11400 | Cc1cn(-c2cc(NC(=O)c3ccc(F)c(C#Cc4cccc5ncncc45)c3)cc(C(F)(F)F)c2)cn1 [Example 24, 3-((quinazolin-5-yl)ethynyl)-4-fluoro-N-[3-(4-methyl-1H-imidazol-1-yl)-5-trifluoromethylphenyl]benzamide] | 
9050 | Cc1ccc(C(=O)Nc2ccc(CN3CCN(C)CC3)c(C(F)(F)F)c2)cc1C#Cc1cccc2nc(N)ncc12 [Example 27, 3-((2-aminoquinazolin-5-yl)ethynyl)-4-methyl-N-[(4-(4-methylpiperazin-1-yl)methyl)-3-trifluoromethylphenyl]benzamide] | 
15500 | CNc1ncc2c(C#Cc3cc(C(=O)Nc4ccc(CN5CCN(C)CC5)c(C(F)(F)F)c4)ccc3C)cccc2n1 [Example 28, 3-((2-methylaminoquinazolin-5-yl)ethynyl)-4-methyl-N-[(4-((4-methyl)piperazin-1-yl)methyl)-3-trifluoromethylphenyl]benzamide] | 
24100 | CNC(=O)c1cc(Oc2ccc(NC(=O)c3ccc(C)c(C#Cc4cccc5ncncc45)c3)cc2)ccn1 [Example 29, 3-((quinazolin-5-yl)ethynyl)-4-methyl-N-[4-(2-(N-methylcarboxamido)pyridinyl-4-oxy)phenyl]benzamide] | 
89100 | CNC(=O)c1cc(Oc2ccc(NC(=O)c3ccc(C)c(C#Cc4ccc5c(NC)ncnc5c4)c3)cc2)ccn1 [Example 30] | 
1090 | Cc1ccc(NC(=O)Nc2ccc(CN3CCN(C)CC3)c(C(F)(F)F)c2)cc1C#Cc1ccc2cncnc2c1 [Example 31] | 

Continued, compound first:

SMILES | IC50 [1, 6] [nM] | other results
Cc1ccc(C(=O)Nc2ccc(CN3CCC(N(C)C)C3)c(C(F)(F)F)c2)cc1C#Cc1cccc2ncncc12 (stereo in doubt) [Example 19, 3-((quinazolin-5-yl)ethynyl)-4-methyl-(S)—N-[4-((3-(dimethylamino)pyrrolidin-1-yl)methyl)-3-trifluoromethylphenyl]benzamide] |  | IC50 ([1]; typically 48 hours): 8100 nM
Cc1ccc(C(=O)Nc2ccc(CN3CCN(C)CC3)c(C(F)(F)F)c2)cc1C#Cc1cnc2cccnn12 [AP24534, reference compound] |  | IC50 [2]: 380 nM; IC50 [3]: 420 nM; IC50 ([1]; Homo sapiens, K562, typically 48 hours): 4800 nM; IC50 [4]: 1210 nM
Cc1ccc(C(=O)Nc2ccc(CN3CCN(C)CC3)c(C(F)(F)F)c2)cc1C#Cc1cccc2[nH]nc(N)c12 [Example 1, 3-(3-amino-1H-indazol-4-yl)ethynyl-4-methyl-N-[4-(4-methylpiperazin-1-yl)methyl-3-trifluoromethylphenyl]benzamide] | 1870 | IC50 [5]: 6.48 nM
Cc1ccc(C(=O)Nc2ccc(CN3CCN(C)CC3)c(C(F)(F)F)c2)cc1C#Cc1ccc2ncncc2c1 [Example 2, 3-((quinazolin-6-yl)ethynyl)-4-methyl-N-[4-((4-methylpiperazin-1-yl)methyl)-3-trifluoromethylphenyl]benzamide] | 3720 | 
Cc1ccc(C(=O)Nc2ccc(CN3CCN(C)CC3)c(C(F)(F)F)c2)cc1C#Cc1cc(F)c2cnc(N)nc2c1 [Example 5, 3-((5-fluoro-2-aminoquinazolin-7-yl)ethynyl)-4-methyl-N-[4-((4-methylpiperazin-1-yl)methyl)-3-trifluoromethylphenyl]benzamide] | 2120 | IC50 [2]: 310 nM; IC50 [3]: 6710 nM; IC50 [4]: 6520 nM
CNc1ncc2ccc(C#Cc3cc(C(=O)Nc4ccc(CN5CCN(C)CC5)c(C(F)(F)F)c4)ccc3C)cc2n1 [Example 6, 3-((2-methylaminoquinazolin-7-yl)ethynyl)-4-methyl-N-[4-((4-methylpiperazin-1-yl)methyl)-3-trifluoromethylphenyl]benzamide] | 730 | IC50 [2]: 2100 nM; IC50 [3]: 7890 nM; IC50 [4]: 8260 nM
CC(=O)Nc1ncc2ccc(C#Cc3cc(C(=O)Nc4ccc(CN5CCN(C)CC5)c(C(F)(F)F)c4)ccc3C)cc2n1 [Example 8, 3-((2-acetylaminoquinazolin-7-yl)ethynyl)-4-methyl-N-[4-((4-methylpiperazin-1-yl)methyl)-3-trifluoromethylphenyl]benzamide] | 1600 | 
CC(=O)Nc1ncc2c(F)cc(C#Cc3cc(C(=O)Nc4ccc(CN5CCN(C)CC5)c(C(F)(F)F)c4)ccc3C)cc2n1 [Example 10, 3-((5-fluoro-2-acetylaminoquinazolin-7-yl)ethynyl)-4-methyl-N-[4-((4-methylpiperazin-1-yl)methyl)-3-trifluoromethylphenyl]benzamide] | 6880 | 
CNc1ncnc2cc(C#Cc3cc(C(=O)Nc4ccc(CN5CCN(C)CC5)c(C(F)(F)F)c4)ccc3C)ccc12 [Example 12, 3-((4-methylaminoquinazolin-7-yl)ethynyl)-4-methyl-N-[4-((4-methylpiperazin-1-yl)methyl)-3-trifluoromethylphenyl]benzamide] | 280 | IC50 [5]: 31.7 nM
CNc1ncnc2cc(C#Cc3cc(C(=O)Nc4ccc(CN5CCN(CCO)CC5)c(C(F)(F)F)c4)ccc3C)ccc12 [Example 14, 3-((4-methylaminoquinazolin-7-yl)ethynyl)-4-methyl-N-[4-((4-(2-hydroxyethyl)piperazin-1-yl)methyl)-3-trifluoromethylphenyl]benzamide] | 5680 | 
CNc1ncc2ccc(C#Cc3cc(C(=O)Nc4ccc(CN5CCN(CCO)CC5)c(C(F)(F)F)c4)ccc3C)cc2n1 [Example 15, 3-((2-methylaminoquinazolin-7-yl)ethynyl)-4-methyl-N-[4-((4-(2-hydroxyethyl)piperazin-1-yl)methyl)-3-trifluoromethylphenyl]benzamide] | 2900 | 
Cc1ccc(C(=O)Nc2ccc(CN3CCN(CCO)CC3)c(C(F)(F)F)c2)cc1C#Cc1cccc2ncncc12 [Example 16, 3-((quinazolin-5-yl)ethynyl)-4-methyl-N-[4-((4-(2-hydroxyethyl)piperazin-1-yl)methyl)-3-trifluoromethylphenyl]benzamide] | 7030 | IC50 [5]: 12.4 nM
Cc1ccc(C(=O)Nc2ccc(CN3CCS(=O)(=O)CC3)c(C(F)(F)F)c2)cc1C#Cc1cccc2ncncc12 [Example 17] | 8720 | 
Cc1ccc(C(=O)Nc2ccc(CN3CC[C@@H](N(C)C)C3)c(C(F)(F)F)c2)cc1C#Cc1cccc2ncncc12 [Example 18, 3-((quinazolin-5-yl)ethynyl)-4-methyl-(R)—N-[4-((3-(dimethylamino)pyrrolidin-1-yl)methyl)-3-trifluoromethylphenyl]benzamide] |  | IC50 ([1]; typically 48 hours): 470 nM; IC50 [5]: 21.7 nM

— US20150152088A1, “ALKYNYL HETEROAROMATIC COMPOUND AND USE THEREOF” (Nanjing Sanhome Pharmaceutical Co., Ltd., priority 2012, published 2015)
